From PubChem BioAssay AID1963969 (Molecular Pharmacology Branch, DTP, NCI, 2024)

Test system: 817829-284-R-J1-PDC multi-cell spheroid viability
Assay: Anticancer human tumor 817829-284-R-J1-PDC patient-derived colon adenocarcinoma cell line growth inhibition [PI3K]
Conditions: for IC50: curve of first compound; for viability, T/C: stronger effect = lower value
How it was run: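 Spheroid viability read-out. Co-cultures contained the tumor line plus HUVEC and human MSCs. Each agent was paired with a PI3K inhibitor (inavolisib, alpelisib, duvelisib, copanlisib) across half-log dilutions starting at clinical Cmax, or at 10 microM when Cmax was unknown.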

[1] = second compound 0.0316 µM, first compound 0.0316 µM
[2] = second compound 0.0316 µM, first compound 0.1 µM
[3] = second compound 0.0316 µM, first compound 0.316 µM
[4] = second compound 0.0316 µM, first compound 1 µM
[5] = second compound 0.0316 µM, first compound 3.16 µM
[6] = second compound 0.0316 µM, first compound 10 µM
[7] = second compound 0.1 µM, first compound 0.0316 µM
[8] = second compound 0.1 µM, first compound 0.1 µM
[9] = second compound 0.1 µM, first compound 0.316 µM
[10] = second compound 0.1 µM, first compound 1 µM
[11] = second compound 0.1 µM, first compound 3.16 µM
[12] = second compound 0.1 µM, first compound 10 µM
[13] = second compound 0.316 µM, first compound 0.0316 µM
[14] = second compound 0.316 µM, first compound 0.1 µM
[15] = second compound 0.316 µM, first compound 0.316 µM
[16] = second compound 0.316 µM, first compound 1 µM
[17] = second compound 0.316 µM, first compound 3.16 µM
[18] = second compound 0.316 µM, first compound 10 µM
[19] = second compound 1 µM, first compound 0.0316 µM
[20] = second compound 1 µM, first compound 0.1 µM
[21] = second compound 1 µM, first compound 0.316 µM
[22] = second compound 1 µM, first compound 1 µM
[23] = second compound 1 µM, first compound 3.16 µM
[24] = second compound 1 µM, first compound 10 µM
[25] = second compound 3.16 µM, first compound 0.0316 µM
[26] = second compound 3.16 µM, first compound 0.1 µM
[27] = second compound 3.16 µM, first compound 0.316 µM
[28] = second compound 3.16 µM, first compound 1 µM
[29] = second compound 3.16 µM, first compound 3.16 µM
[30] = second compound 3.16 µM, first compound 10 µM
[31] = second compound 10 µM, first compound 0.0316 µM
[32] = second compound 10 µM, first compound 0.1 µM
[33] = second compound 10 µM, first compound 0.316 µM
[34] = second compound 10 µM, first compound 1 µM
[35] = second compound 10 µM, first compound 3.16 µM
[36] = second compound 10 µM, first compound 10 µM
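Further: spheroids exposed to agents for seven days before readout.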
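Wherever viability, T/C is given: percent of vehicle DMSO control viability which is 100%.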

Work on `CC(Cn1ccc(-c2ccc(C#N)c(Cl)c2)n1)NC(=O)c1cc(C(C)O)[nH]n1` (centres undefined) + Cc1nc(NC(=O)N2CCCC2C(N)=O)sc1-c1ccnc(C(C)(C)C(F)(F)F)c1 yielded an IC50 (second compound 0.0316 µM) greater than 10000 nM, an IC50 (second compound 0.1 µM) of less than 31.6 nM and an IC50 (second compound 0.316 µM) greater than 10000 nM. The IC50 (second compound 1 µM) was 2620 nM, the IC50 (second compound 3.16 µM) was greater than 10000 nM and the IC50 (second compound 10 µM) was less than 31.6 nM. The viability, T/C [1] was 72.1%, the viability, T/C [2] was 92.1% and the viability, T/C [3] was 118%. For the same compound, the viability, T/C [4] was 82.5%, the viability, T/C [5] was 64.8% and the viability, T/C [6] was 67.4%. The viability, T/C [7] was 42.2%, the viability, T/C [8] was 81.5% and the viability, T/C [9] was 96.1%. The viability, T/C [10] was 103%, the viability, T/C [11] was 85.2% and the viability, T/C [12] was 71.1%. For the same compound, the viability, T/C [13] was 56.9%, the viability, T/C [14] was 94.3% and the viability, T/C [15] was 72.3%. The viability, T/C [16] was 72.1%, the viability, T/C [17] was 75.8% and the viability, T/C [18] was 54.4%. The viability, T/C [19] was 53.1%, the viability, T/C [20] was 89.8% and the viability, T/C [21] was 80.5%. It also gave a viability, T/C [22] of 71.5%, a viability, T/C [23] of 42.1% and a viability, T/C [24] of 49.5%. For the same compound, the viability, T/C [25] was 66.7%, the viability, T/C [26] was 55.2% and the viability, T/C [27] was 50.1%. It also gave a viability, T/C [28] of 89.7%, a viability, T/C [29] of 42% and a viability, T/C [30] of 57.2%. The viability, T/C [31] was 55.8%, the viability, T/C [32] was 31.7% and the viability, T/C [33] was 47.2%. It also gave a viability, T/C [34] of 40.9%, a viability, T/C [35] of 59.4% and a viability, T/C [36] of 35%.

`CC1(C)CCC(Nc2ncc(C(F)(F)F)c(-c3c[nH]c4c(P(C)(C)=O)c(C#N)ccc34)n2)CN1` (centres undefined) + Cc1nc(NC(=O)N2CCCC2C(N)=O)sc1-c1ccnc(C(C)(C)C(F)(F)F)c1 was tested, and the IC50 (second compound 0.0316 µM) was less than 31.6 nM, the IC50 (second compound 0.1 µM) was less than 31.6 nM and the IC50 (second compound 0.316 µM) was less than 31.6 nM. The IC50 (second compound 1 µM) was less than 31.6 nM, the IC50 (second compound 3.16 µM) was less than 31.6 nM and the IC50 (second compound 10 µM) was less than 31.6 nM. For the same compound, the viability, T/C [1] was 30.4%, the viability, T/C [2] was 24.9% and the viability, T/C [3] was 26.7%. It also gave a viability, T/C [4] of 32.1%, a viability, T/C [5] of 30.8% and a viability, T/C [6] of 1.2%. It also gave a viability, T/C [7] of 27.2%, a viability, T/C [8] of 24.7% and a viability, T/C [9] of 32.2%. The viability, T/C [10] was 39.8%, the viability, T/C [11] was 28.7% and the viability, T/C [12] was 1.28%. The viability, T/C [13] was 25%, the viability, T/C [14] was 27.7% and the viability, T/C [15] was 26.9%. The viability, T/C [16] was 25.9%, the viability, T/C [17] was 32.7% and the viability, T/C [18] was 1.02%. For the same compound, the viability, T/C [19] was 26.6%, the viability, T/C [20] was 26.6% and the viability, T/C [21] was 31.8%. The viability, T/C [22] was 33.4%, the viability, T/C [23] was 30.6% and the viability, T/C [24] was 1.41%. The viability, T/C [25] was 29.6%, the viability, T/C [26] was 26.2% and the viability, T/C [27] was 28.6%. For the same compound, the viability, T/C [28] was 28.7%, the viability, T/C [29] was 29% and the viability, T/C [30] was 0.82%. It also gave a viability, T/C [31] of 23.9%, a viability, T/C [32] of 28.4% and a viability, T/C [33] of 24.6%. It also gave a viability, T/C [34] of 21.3%, a viability, T/C [35] of 21.2% and a viability, T/C [36] of 0.69%.
